In patent US11161824B2, “Heterocyclic lipoxin analogs and uses thereof” (University College Dublin, National University of Ireland, …, priority 2016, dated 2021):

Columns and labels:
NFkB [1] = assay: LPS-induced NFkB-driven luciferase activity in THP-1 LUCIA monocytes; type: cell-based; conditions: for reduction of LPS-induced NFkB luciferase activity: 30 min pre-treatment, then 24 h with 50 ng/ml LPS, relative to LPS; for effect on LPS-induced NFkB-driven luciferase activity (in words): doses 10^-12 M to 10^-6 M, 50 ng/ml LPS, 24 h; for concentration at which maximal inhibition of LPS-induced NFkB activity is reached: dose-response 10^-12 M to 10^-6 M; for potency in reducing LPS-induced NFkB activity, comparison in words: versus LXA4 or other analogues
Protocol: 1×10^5 THP-1 LUCIA monocytes were pre-treated for 30 min with native LXA4 1 (FIG. 1A), imidazole analogues 9 [(1R)-epimer (FIG. 1B) and (1S)-epimer (FIG. 1C)], vehicle or appropriate controls, at increasing doses ranging from 10^−12 M up to 10^−6 M. 10^8 HKLM was used as positive control for NFkB activation. After 24 h from stimulation with 50 ng/ml of LPS, supernatants were collected and NFkB-driven luciferase was measured. (d) Data are expressed as % Relative Luminescence Unit relative to LPS alone ±SEM (n=3), *=p<0.05, **=p<0.01, ***=p<0.001. Graphs display the statistical analysis of the tested compound vs LPS.
(§1) The experiments were based around a model which utilised 1×10^5/ml THP-1 monocytes stably expressing NFkB luciferase reporter gene (LUCIA).
(§2) Anti-inflammatory activity was assessed by testing 10 analogues (6 quinoxalines & 4 isoquinolines) in presence & absence of lipopolysaccharide (LPS). For each analogue, a dose-response from 10^−12 M up to 10^−6 M was performed. The vehicle control corresponded to 0.1% Ethanol. NFkB activator, Heat-Killed Listeria Monocytogenes (HKLM) (10^7 cells/ml), were used as positive control for luciferase induction. 10^−6 M Dexamethasone (Dex) was used as positive control for luciferase inhibition. […] Benzo-lipoxin A4 (BLX) was used as positive control for LXA4 analogues.
A 2-tailed, assuming unequal variance T-test analysis was performed on three independent experiments for each assay. P-values were considered significant when p<0.05. If p<0.05, then * or $; if p<0.01, then ** or $$ or ##; if p<0.001, then *** or $$$ or ###.
Cells were seeded in 96-well plates and pre-treated with increasing doses of LXA4, analogues or controls for 30 min, followed by 24 h of co-incubation with 50 ng/ml LPS. […] (*=statistical analysis vs LPS; $=statistical analysis vs LXA4)

[2] = system: zymosan-induced peritonitis; assay: Murine zymosan-induced peritonitis; type: in vivo, C57BL6/J mice; conditions: lavage 24 h
Protocol: As shown in FIG. 17 zymosan [1 mg per mouse in 200 μl H2O] induced a massive influx of leukocytes detected in lavage 24 h post-zymosan. […] Mean of total cell numbers=4.27×10^6/ml [basal]; 5.9×107 [vehicle pretreatment and zymosan]; 2.18×107 [LXA4 pretreatment and zymosan]. Pretreament with (R) and (S) epimers of 9 also attenuated cell influx: 2.5×10^7/ml [pretreatment with (1R)-9 and zymosan; p=0.0368, relative to zymosan alone]; 1.16×107 (1S)-9 [p=0.0048 relative to zymosan alone]. Importantly, (1R)-9 and (1S)-9 were administered at doses of 1.7 ng/g using the same regimen as LXA4. As anticipated the leukocyte influx was predominantly neutrophil [PMN]. PMN numbers were reduced to 35, 44 and 20% maximum response by LXA4, (1R)-9 and (1S)-9 epimers respectively.
Effect of LXA4 1 and imidazole-lipoxin analogues (1R)-9 and (1S)-9 on murine zymosan-induced peritonitis. Peritonitis was induced in groups of 5 male C57BL6/J mice by injection of zymosan (Sigma) i.p. (1 mg per mouse in 200 μl H2O). Mice were treated with LXA4 1; (5 ng/g); (1R)-9 (1.7 ng/g) or (1S)-9 (1.7 ng/g) (200 μl i.p.) 30 minutes prior to zymosan injection and again, 1 hour after zymosan injection. Treatments with LXA4 1, (1R)-9 and (1S)-9 are designated A, B and C respectively. Peritoneal cells were collected by lavage 24 hours after injection of zymosan. Cells were incubated with LIVE/DEAD Fixable Aqua stain (Molecular probes, Invitrogen) to isolate dead cells. Data shown are total cell counts/ml. Surface marker expression on peritoneal cells was assessed by flow cytometry with data collection on a CyAn (Beckman Coulter). Data were analyzed using FlowJo software (Tree Star). Cells were stained with BD Biosciences mAbs; Siglec-F-PE (E50-2440), F4/80-FITC (BM8), eBiosciences mAb; CD11b-PerCP (M1/70) and BioLegend mAbs; CD206-PECy7 (C068C2) and Ly6G-APCCy7 (1A8). Using appropriate isotype-controls, quadrants were drawn and data plotted on logarithmic scale density- or dot-plots to investigate the relative % of PMN, eoisiophils, M1 and M2 macrophgaes. […]

NFkB [3] = assay: NFkB-driven luciferase activity in resting conditions (absence of LPS) in THP-1 LUCIA monocytes; type: cell-based; conditions: 10^-12 M to 10^-6 M, 24 h
Protocol: 1×10^5 THP-1 LUCIA monocytes were treated for 30 min with native (a) LXA4 1, its stable imidazole-lipoxin analogues (1R)-9 and (1S)-9, vehicle or appropriate controls, at increasing doses ranging from 10^−12 M up to 10^−6 M. After 24 h, supernatants were collected and NFkB-driven luciferase was measured. Data are expressed as % Relative Luminescence Unit relative to LPS alone ±SEM (n=3).
as §1, §2

Th1 cytokine release = assay: LPS-induced Th1 cytokine release from THP-1 LUCIA monocytes; type: cell-based; conditions: 10^-11, 10^-9 or 10^-7 M; 50 ng/ml LPS 24 h; IL1β, IL6, IL12p70, IFNγ, TNF-α as per figure
Protocol: FIG. 2A-2E are graphs showing imidazole-lipoxin analogues (1R)-9 and (1S)-9 reduce LPS-induced Th1 cytokine release. 1×10^5 THP-1 LUCIA monocytes were pre-treated for 30 min with […], 10^−9 M or 10^−7 M of LXA4 1 and imidazole-lipoxin analogues (1R)-9 and (1S)-9, vehicle or appropriate controls. After 24 h from stimulation with 50 ng/ml of LPS, supernatants were collected and […] (FIG. 2A), IL6 (FIG. 2B), IL12p70 (FIG. 2C), IFNγ (FIG. 2D), and TNF-α (FIG. 2E) levels were measured. Data are expressed as % cytokine secretion relative to LPS alone ±SEM (n=3), *=p<0.05, **=p<0.01, ***=p<0.001.
FIG. 6A-6C are graphs showing that quinoxaline-lipoxin analogue (1R)-CT-4-43 inhibits LPS-induced Th1 cytokine release. 1×10^5 THP-1 LUCIA monocytes were pre-treated for 30 min with […], 10^−9 M or 10^−7 M of LXA4 and quinoxaline-lipoxin analogue (1R)-CT-4-43, vehicle or appropriate controls. After 24 h from stimulation with 50 ng/ml of LPS, supernatants were collected and IL13 (FIG. 6A), IL6 (FIG. 6B), and IFNγ (FIG. 6C) levels were measured. Data are expressed as % cytokine secretion relative to LPS alone ±SEM (n=3), *=p<0.05, **=p<0.01, ***=p<0.001.
FIG. 9A-9C are graphs showing that the isoquinoline-lipoxin analogue RB3 inhibit LPS-induced Th1 cytokine release. 1×10^5 THP-1 LUCIA monocytes were pre-treated for 30 min with 10^−11 M, 10^−9 M or 10^−7 M of LXA4 and isoquinoline-lipoxin analogue (1R)-RB3, vehicle or appropriate controls. After 24 h from stimulation with 50 ng/ml of LPS, supernatants were collected and IL1β(FIG. 9A), IL6 (FIG. 9B), and IL12p70 (FIG. 9C) levels were measured. Data are expressed as % cytokine secretion relative to LPS alone ±SEM (n=3), *=p<0.05, **=p<0.01, ***=p<0.001.

THP-1 monocytes = conditions: human, 24 h
Protocol: Cytotoxicity Prior to functional assay testing, all compounds were screened for any cytotoxic effect, in the presence & absence of LPS, measuring the level of lactate dehydrogenase (LDH) released at A490nm.
The cells were treated as described above and, after 24 h, supernatant was collected and LDH activity assayed.

[4] = 1.7 ng/g i.p. 30 min before and 1 h after zymosan

CCC[C@@H](O)c1nc2ccccc2nc1/C=C/[C@@H](O)[C@@H](O)CCCC(=O)OC [(1R)-CT4-68, Methyl (5S,6R,E)-5,6-dihydroxy-8-(3-((R)-1-hydroxybutyl)quinoxalin-2-yl)oct-7-enoate]
reduction of LPS-induced NFkB luciferase activity (NFkB [1]; 1 uM): 28.9±6.6%
effect on LPS-induced NFkB-driven luciferase activity (in words) (NFkB [1]): attenuates

CCCCC[C@H](O)/C=C/C=C\C=C\C=C\[C@@H](O)[C@@H](O)CCCC(=O)O [LXA4, Lipoxin A4, reference compound]
reduction of LPS-induced NFkB luciferase activity (NFkB [1]; 100 nM): 24±1.1%
concentration at which maximal inhibition of LPS-induced NFkB activity is reached (NFkB [1]): 100 nM
PMN numbers ([2]; 5 ng/g i.p. 30 min before and 1 h after zymosan): 35 % maximum response

CCCCC[C@@H](O)c1c(/C=C/[C@@H](O)[C@@H](O)CCCC(=O)OC)nc(C)n1C [KG-5-22, (5S,6R,E)-methyl 5,6-dihydroxy-8-(5-((R)-1-hydroxyhexyl)-1,2-dimethyl-1H-imidazol-4-yl)oct-7-enoate]
reduction of LPS-induced NFkB luciferase activity (NFkB [1]; 1 pM): 43.7±8.9%
reduction of LPS-induced NFkB luciferase activity (NFkB [1]; 10 pM): 41.3±9.0%
effect on LPS-induced NFkB-driven luciferase activity (in words) (NFkB [1]): attenuating
NFkB-driven luciferase activity in resting conditions (in words) (NFkB [3]): did not induce
NFkB-driven luciferase activity in resting conditions (in words) (NFkB [3]; listed as KG5-22): does not elicit

CCCCC[C@H](O)c1nc(-c2ccccc2)n(-c2ccccc2)c1/C=C/[C@@H](O)[C@@H](O)CCCC(=O)OC [(1S)-9, Methyl (5S,6R,E)-5,6-dihydroxy-8-(4-((S)-1-hydroxyhexyl)-1,2-diphenyl-1H-imidazol-5-yl)oct-7-enoate]
effect on LPS-induced NFkB-driven luciferase activity (in words) (NFkB [1]): attenuating
NFkB-driven luciferase activity in resting conditions (in words) (NFkB [3]): do not elicit
effect on LPS-induced Th1 cytokine release (in words) (Th1 cytokine release): reduce
PMN numbers [2, 4]: 20 % maximum response

CCCCC[C@@H](O)c1nc(-c2ccccc2)n(-c2ccccc2)c1/C=C/[C@@H](O)[C@@H](O)CCCC(=O)OC [(1R)-9, Methyl (5S,6R,E)-5,6-dihydroxy-8-(4-((R)-1-hydroxyhexyl)-1,2-diphenyl-1H-imidazol-5-yl)oct-7-enoate]
effect on LPS-induced NFkB-driven luciferase activity (in words) (NFkB [1]): attenuating
NFkB-driven luciferase activity in resting conditions (in words) (NFkB [3]): do not elicit
effect on LPS-induced Th1 cytokine release (in words) (Th1 cytokine release): reduce
PMN numbers [2, 4]: 44 % maximum response

CCCCC[C@@H](O)c1ncc(/C=C/[C@@H](O)[C@@H]2CCCC(=O)O2)c2ccccc12 [(1S)-DM-178-SB4, (S)-6-((R,E)-1-Hydroxy-3-(1-((R)-1-hydroxyhexyl)isoquinolin-4-yl)allyl)tetrahydro-2H-pyran-2-one]
reduction of LPS-induced NFkB luciferase activity (NFkB [1]; 1 uM): 26.8±8.7%
effect on LPS-induced NFkB-driven luciferase activity (in words) (NFkB [1]): attenuates

CCCCCCC[C@@H](O)c1nc2ccccc2nc1/C=C/[C@@H](O)[C@@H](O)CCCC(=O)OC [(1R)-CT4-63, Methyl (5S,6R,E)-5,6-dihydroxy-8-(3-((R)-1-hydroxyoctyl)quinoxalin-2-yl)oct-7-enoate]
reduction of LPS-induced NFkB luciferase activity (NFkB [1]; 1 nM): 22.8±7.4%
concentration at which maximal inhibition of LPS-induced NFkB activity is reached (NFkB [1]): 1 nM
effect on LPS-induced NFkB-driven luciferase activity (in words) (NFkB [1]): attenuates
potency in reducing LPS-induced NFkB activity, comparison in words (NFkB [1]): not significantly different from LXA4

C[C@@H]1C[C@H]2[C@@H]3CCC4=CC(=O)C=C[C@]4(C)[C@@]3(F)[C@@H](O)C[C@]2(C)[C@@]1(O)C(=O)CO [Dexamethasone]
effect on LPS-induced LDH activity (cytotoxicity, in words) (THP-1 monocytes): significantly (p<0.001) increased

CCCCC[C@@H](O)c1nc(/C=C/[C@@H](O)[C@@H](O)CCCC(=O)OC)cc2ccccc12 [(1R)-DM-163-RB3]
reduction of LPS-induced NFkB luciferase activity (NFkB [1]; 10 nM): 35.4±6.1%
reduction of LPS-induced NFkB luciferase activity (NFkB [1]; 100 nM): 37.9±9.7%
effect on LPS-induced NFkB-driven luciferase activity (in words) (NFkB [1]): attenuates
potency in reducing LPS-induced NFkB activity, comparison in words (NFkB [1]): most potent
NFkB-driven luciferase activity in resting conditions (in words) (NFkB [3]): did not elicit
effect on LPS-induced Th1 cytokine release (in words) (Th1 cytokine release): inhibit
